Paper PMC12426935, “On-Cell Saturation Transfer Difference NMR Spectroscopy on Ion Channels: Characterizing Negative Allosteric Modulator Binding Interactions of P2X7” (Journal of the American Chemical Society, 2025)
Where two headings read alike, the source gives them in different places.

Assays:
rat P2X7 (rP2X7) = biological target: T1, rat P2X7 (rP2X7) (Rattus norvegicus, UniProt Q64663); assay: fura-2 intracellular calcium assay on HEK-293 stable cell line expressing rat P2X7; format: cell-based; settings: Rat P2X7 (Table 1), n = 3
T1 construct: expressed in transfected cells
T1 sequence (Q64663 1-595): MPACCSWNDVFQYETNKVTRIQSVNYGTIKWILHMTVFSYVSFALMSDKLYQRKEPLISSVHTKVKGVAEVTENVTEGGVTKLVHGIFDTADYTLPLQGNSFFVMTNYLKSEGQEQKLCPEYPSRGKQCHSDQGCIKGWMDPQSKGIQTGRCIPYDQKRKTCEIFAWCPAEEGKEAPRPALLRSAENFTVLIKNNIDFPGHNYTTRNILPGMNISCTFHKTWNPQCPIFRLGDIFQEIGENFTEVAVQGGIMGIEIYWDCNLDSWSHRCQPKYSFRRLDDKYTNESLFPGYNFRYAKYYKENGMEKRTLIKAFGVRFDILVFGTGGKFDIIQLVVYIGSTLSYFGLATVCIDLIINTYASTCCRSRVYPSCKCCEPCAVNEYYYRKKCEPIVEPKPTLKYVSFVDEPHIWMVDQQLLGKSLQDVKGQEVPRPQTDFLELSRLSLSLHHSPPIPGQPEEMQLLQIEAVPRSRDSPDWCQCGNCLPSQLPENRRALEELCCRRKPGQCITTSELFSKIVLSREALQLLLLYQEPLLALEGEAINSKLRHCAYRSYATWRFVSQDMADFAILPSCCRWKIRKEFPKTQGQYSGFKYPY
Description: (§1) Genetically edited HEK-293 cells lacking P2Y2 receptors were used to generate stable cell lines expressing human P2X7 (hP2X7), mouse P2X7 (mP2X7), rat P2X7 (rP2X7), or mutants of the hP2X7 NAM site (F88A, M105A, and F103A). Transfection was performed using lipofectamine 2000 (Fisher Scientific), and cells were subjected to Geneticin (800 μg/mL) selection for 2–3 weeks. This was followed by single cell cloning by limiting dilution in 96-well plates. Individual clones were selected for further study based on ATP-induced TO-PRO-3 uptake on a BD Cytoflex flow cytometer. Cell lines were maintained in DMEM:F12 media supplemented with 10% fetal bovine serum (PanBiotech), penicillin and streptomycin (Fisher Scientific) and kept in a humidified incubator with 5% CO2. Stable P2X7-expressing cells were kept under Geneticin selection at a concentration of 400 μg/mL. Passaging was performed twice weekly using 0.25% Trypsin-EDTA (Fisher Scientific).
(§2) P2X7 responses were measured by monitoring intracellular calcium responses using fura-2AM loaded cells. Cells were plated at 2–2.5 × 10^4 cells/well the day before experiments in 96-well plates (NUNC) coated with 50 μg/mL poly-D-lysine (Merck Millipore). A loading buffer containing 2 μM fura-2AM (HelloBio) and 250 μM sulfinpyrazone (Merck Millipore) in a low divalent buffer (145 mM NaCl, 5 mM KCl, 0.2 mM CaCl2, 10 mM HEPES, 13 mM glucose, pH 7.3) was added to cells for 45 min at 37 °C. After loading, the buffer was removed and replaced with calcium-containing extracellular solution (145 mM NaCl, 5 mM KCl, 2 mM CaCl2, 10 mM HEPES, 13 mM glucose, pH 7.3). Responses were measured using a Flexstation 3 plate reader (Molecular Devices) with dual excitation wavelengths of 340 and 380 nm and single emission wavelength of 510 nm. The sample interval was 3.5 s, and each well was recorded for 180 s. Fura-2 ratios were calculated in Softmax Pro v5.4; zero baseline was applied, and responses were measured as normalized area under the curve (AUC). Dose inhibition curves were plotted using GraphPad Prism v6 nonlinear regression (three parameter fit) and log IC50 values reported.

mouse P2X7 (mP2X7) = biological target: T2, mouse P2X7 (mP2X7) (Mus musculus, UniProt Q9Z1M0); assay: fura-2 intracellular calcium assay on HEK-293 stable cell line expressing mouse P2X7; format: cell-based; settings: Mouse P2X7 (Table 1); mean in brackets, n = 3
T2 construct: expressed in transfected cells
T2 sequence (Q9Z1M0 1-595): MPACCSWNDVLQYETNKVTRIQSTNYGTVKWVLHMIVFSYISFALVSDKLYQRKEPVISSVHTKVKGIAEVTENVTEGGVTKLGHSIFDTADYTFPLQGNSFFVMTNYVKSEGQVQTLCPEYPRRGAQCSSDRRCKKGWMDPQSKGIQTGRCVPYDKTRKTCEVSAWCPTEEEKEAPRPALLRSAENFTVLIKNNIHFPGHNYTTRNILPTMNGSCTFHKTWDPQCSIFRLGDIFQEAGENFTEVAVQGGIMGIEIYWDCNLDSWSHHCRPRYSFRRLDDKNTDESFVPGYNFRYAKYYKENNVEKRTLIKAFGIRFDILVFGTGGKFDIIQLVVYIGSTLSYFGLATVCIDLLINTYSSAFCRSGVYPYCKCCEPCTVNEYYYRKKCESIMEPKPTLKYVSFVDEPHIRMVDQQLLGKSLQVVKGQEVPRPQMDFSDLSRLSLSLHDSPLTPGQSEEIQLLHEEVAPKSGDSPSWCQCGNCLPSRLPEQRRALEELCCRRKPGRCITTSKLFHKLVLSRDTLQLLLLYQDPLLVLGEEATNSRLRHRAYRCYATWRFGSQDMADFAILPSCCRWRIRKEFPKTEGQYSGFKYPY
Description: as §1
as §2, with “Dose inhibition curves were plotted using GraphPad Prism v6 nonlinear regression (three parameter fit) and log IC50 values reported.” left out

An IC50 (rat P2X7 (rP2X7); log IC50 ± standard error, read-out: Log IC50 (converted)) of 52.5 nM, an IC50 (rat P2X7 (rP2X7); mean in brackets, read-out: mean IC50) of 53.1 nM and an IC50 (mouse P2X7 (mP2X7)) of 524 nM were found for `O=C(CC12CC3CC(CC(C3)C1)C2)Nc1cccc2nc(NCCNCCO)ccc12` [AZ10606120] in this work.
